# Experimental data: patent US20160367623A1, “AGONISTS OF GUANYLATE CYCLASE USEFUL FOR THE TREATMENT OF GASTROINTESTINAL DISORDERS, INFLAMMATION, CANCER AND OTHER DISORDERS” (priority 2015, published 2016)
# Bridge positions count the residues as written; N and C are the ends. Ends that are not written are not given here.
# Columns and labels:
# [1] = tested on: patients with chronic idiopathic constipation (CIC); assay: First phase 3 CIC trial: treatment emergent adverse events, safety
# [2] = tested on: patients with chronic idiopathic constipation (CIC); assay: First phase 3 CIC trial: stool consistency, Bristol Stool Form Scale (BSFS) change from baseline; format: in vivo, human; settings: for Change from Baseline in Stool Consistency, Difference from Placebo: overall 12-week; for Change from Baseline in Stool Consistency (BSFS), LS Mean (SE): overall average across the 12-week treatment period, ITT; for mean increase from baseline in BSFS score: placebo 0.77
# Text: Both trials include a two-week pre-treatment baseline period, a 12-week treatment period, and a two-week post-treatment period. The phase 3 CIC program was designed to support regulatory submission in the U. S.
# Patients were selected using Rome 3 criteria modified for CIC and had (1) fewer than 3 defecations per week, (2) loose stools occurring rarely without laxatives, (3) inadequate criteria for irritable bowel syndrome with constipation (IBS-C), and (4) at least two of the following applied to at least 25% of defecations: (a) straining during evacuation, (b) lumpy or hard stools, (c) sensation of anorectal obstruction or blockage. Rome 3 requires patients to fulfill the criteria for the last 3 months with symptom onset at least 6 months prior to diagnosis.
# [3] = tested on: patients with chronic idiopathic constipation (CIC); assay: Second phase 3 CIC trial: patient disposition, reasons for discontinuation; settings: All Randomized
# [4] = tested on: patients with chronic idiopathic constipation (CIC); settings: in vivo
substance,measurement,setting,value
"Asn^1-Asp^2-Glu^3-Cys^4-Glu^5-Leu^6-Cys^7-Val^8-Asn^9-Val^10-Ala^11-Cys^12-Thr^13-Gly^14-Cys^15-Leu^16 (NDECELCVNVACTGCL; disulfide 4-12, 7-15) [Plecanatide]","Serious TEAE Infections and infestations, Reasonable Possibility: E events",[1]; 3 mg (N = 474),0
same,"Serious TEAE Infections and infestations, Reasonable Possibility: N patients",[1]; 3 mg (N = 474),0
same,Serious TEAE Infections and infestations: E events,[1]; 3 mg (N = 474),0
same,Serious TEAE Infections and infestations: N patients,[1]; 3 mg (N = 474),0
same,"Serious TEAE Infections and infestations, Reasonable Possibility: E events",[1]; 6 mg (N = 457),0
same,"Serious TEAE Infections and infestations, Reasonable Possibility: N patients",[1]; 6 mg (N = 457),0
same,Serious TEAE Infections and infestations: % patients,[1]; 6 mg (N = 457),(0.4) %
same,Serious TEAE Infections and infestations: E events,[1]; 6 mg (N = 457),2
same,Serious TEAE Infections and infestations: N patients,[1]; 6 mg (N = 457),2
same,"Week 1 Change from Baseline in Stool Consistency, Difference from Placebo",[2]; 3 mg,0.92
same,"Week 1 Change from Baseline in Stool Consistency, LS Mean (SE)",[2]; 3 mg,1.50 (0.071)
same,stool consistency after discontinuation of treatment,"[2]; 3.0 mg and 6.0 mg, post-treatment period",returned towards baseline with no indication of an exaggerated or rebound effect
same,"Week 1 Change from Baseline in Stool Consistency, Mean (SD)","[2]; 3 mg, n 414",1.57 (1.563)
same,"Change from Baseline in Stool Consistency, Difference from Placebo",[2]; 3 mg,0.76
same,"Change from Baseline in Stool Consistency (BSFS), LS Mean (SE)",[2]; 3 mg,1.53 (0.058)
same,mean increase from baseline in BSFS score,[2]; 3.0 mg,1.53
same,"Week 1 Change from Baseline in Stool Consistency, Difference from Placebo",[2]; 6 mg,0.85
same,"Week 1 Change from Baseline in Stool Consistency, LS Mean (SE)",[2]; 6 mg,1.42 (0.072)
same,"Week 1 Change from Baseline in Stool Consistency, Mean (SD)","[2]; 6 mg, n 399",1.42 (1.640)
same,"Change from Baseline in Stool Consistency, Difference from Placebo",[2]; 6 mg,0.75
same,"Change from Baseline in Stool Consistency (BSFS), LS Mean (SE)",[2]; 6 mg,1.52 (0.059)
same,mean increase from baseline in BSFS score,[2]; 6.0 mg,1.52
same,"Week 1 Change from Baseline in Stool Consistency, Mean (SD)","[2]; Active Combined, n 813",1.49 (1.602)
same,"Discontinuation before Week 12 (EOT), primary reason Insufficient Therapeutic Effect, (%)",[3]; 3 mg (N = 470),(0.6) %
same,"Discontinuation before Week 12 (EOT), primary reason Insufficient Therapeutic Effect, (%)",[3]; 6 mg (N = 471),(0.2) %
same,"serum chemistries, hematology, urinalysis, ECG or vital signs",[4],No clinically relevant abnormalities were observed
